According to patent US20070135436A1, “Chemical compounds” (Clavis Pharma AS, priority 2005, published 2007):
Like-named read-outs stand apart in the source and are kept apart here.

What was measured:
several cell lines = conditions: prior art references; cited from earlier work
[1] = tested on: breast cancer cell line MaTu; test: MTT growth inhibition in breast cancer cell line MaTu; type: cell-based, human; conditions: MaTu cells; for IC50: 4 days incubation, MTT, read-out: IC50 μM ± Standard Deviation
Protocol: The breast cancer cell line MaTu was seeded, 5×10^3 cells per well, in 96-well-plates. The medium was RMPI 1640 with 2 mM Glutamine and 10% Foetal Bovine Serum. 24 hours later the test compounds were added in 6 concentrations. The cells were incubated for 4 days. The MTT solution was added to each well and incubated for 4 hours. The samples were read by an ELISA reader at 540 nm. The IC50 values were determined from growth curves. The test compounds were troxacitabine elaidic amid, troxacitabine petroselaidoate, troxacitabine-petroselaidic amide and troxacitabine γ-linolenoate.

IC50 ([1]; Homo sapiens, 96 h) [µM]	Structure (SMILES)	other results
	CCCCCCCCC=CCCCCCCCC(=O)Nc1ccn(C2COC(CO)O2)c(=O)n1 (stereo not drawn) [oleic acid amid derivative]	times better activity than the elaidic acid amide counterpart (several cell lines): 2 to 5 times
	CCCCCCCC/C=C/CCCCCCCC(=O)Nc1ccn([C@@H]2CO[C@H](CO)O2)c(=O)n1 [troxacitabine elaidic-amide, Troxacitabine N^4-elaidic Acid Amide, reference compound]	IC50 [1]: 3.58 ± 2.56 µM
0.18 ± 0.12	CCCCCCCCCCC/C=C/CCCCC(=O)OC[C@H]1OC[C@@H](n2ccc(N)nc2=O)O1 [troxacitabine petroselaidoate, Troxacitabine-2′-hydroxymethyl-petroselaidoate]	fold more active than troxacitabine elaidic amide ([1]; relative to troxacitabine elaidic amide): 20 fold
0.83 ± 0.59	CCCCC/C=C\C/C=C\C/C=C\CCCCC(=O)OC[C@H]1OC[C@@H](n2ccc(N)nc2=O)O1 [troxacitabine γ-linolenoate, Troxacitabine 2′-hydroxymethyl-6,9,12-linolenoate]	
0.15 ± 0.07	CCCCCCCCCCC/C=C/CCCCC(=O)Nc1ccn([C@@H]2CO[C@H](CO)O2)c(=O)n1 [troxacitabine-petroselaidic amide, Troxacitabine N^4-petroselaidic Acid Amide]	
